Assay results reported in PubChem BioAssay (NCI).
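Step 1: Grow cells in 96-well plates. Step 2: Expose to compound for 48 hours at 5 concentrations. Step 3: Interpolate endpoints linearly; if unreached, use highest concentration. At the GI50, growth is halved. TGI: total growth inhibition.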

How the values were obtained:
Assay in all cases: NCI-60 cell line screen, 48 h
[1] = test system: 786-0 renal
[2] = test system: A549 NSCLC
[3] = test system: HCC-2998 colon
[4] = test system: HT29 colon
[5] = test system: M14 melanoma
[6] = test system: OVCAR-3 ovarian
[7] = test system: SNB-75 CNS
[8] = test system: UO-31 renal
[9] = test system: MOLT-4 leukemia
[10] = test system: DU-145 prostate

SMILES | TGI [1] [µM] | TGI [2] [µM] | TGI [3] [µM] | TGI [4] [µM] | TGI [5] [µM] | TGI [6] [µM] | TGI [7] [µM] | TGI [8] [µM] | TGI [9] [µM] | GI50 [1] [µM] | GI50 [2] [µM] | GI50 [10] [µM] | TGI [10] [µM] | GI50 [4] [µM] | GI50 [5] [µM] | GI50 [9] [µM] | GI50 [6] [µM] | GI50 [8] [µM] | GI50 [3] [µM]
O=C(/C=C/c1ccc(Cl)c(Cl)c1)c1cccc2ccccc12 | 13.2 | 45.2 | 22.4 | 12.1 | 30.9 | 18.6 | 14 | 33.8 | – | – | – | – | – | – | – | – | – | – | –
O=C1C=C(O)C(=Cc2c(O)cc(O)cc2O)C(O)=C1 | > 100 | > 100 | > 100 | > 100 | > 100 | > 100 | > 100 | > 100 | > 100 | – | – | – | – | – | – | – | – | – | –
COc1cc2ncc3c(nc4sccn43)c2cc1OC | 40.2 | > 100 | – | > 100 | 78.2 | 42 | – | > 100 | > 100 | 14.6 | 28.7 | 28 | > 100 | 69.7 | 16.4 | 29.3 | 13.1 | 33.6 | –
Cc1ccc(NC(=O)C(=O)C(C(=O)/C=C/c2ccccc2)C2OC(=O)c3ccccc32)c(C)c1 (centres undefined) | > 100 | > 100 | > 100 | > 100 | > 100 | > 100 | > 100 | > 100 | > 100 | – | – | – | – | – | – | – | – | – | –
CC1=NN(c2ccccc2)C(=O)/C1=C\c1ccc([N+](=O)[O-])cc1 | 85.8 | > 100 | 63.2 | 97 | > 100 | – | > 100 | > 100 | 48.4 | – | – | – | – | – | – | – | – | – | –
N[C@H](COCc1ccccc1)c1ccccc1 | > 80.9 | > 100 | > 91.7 | > 93.9 | 66 | > 76.2 | 56 | 87.4 | 45.7 | – | – | – | – | – | – | – | – | – | –
Cc1ccccc1-n1c(N)c(-c2nc3ccccc3[nH]2)sc1=S | 81.3 | 71.3 | 34.8 | 36.9 | 36.5 | 41.1 | 56.6 | 45.6 | 70.6 | – | – | – | – | – | – | – | – | – | –
NC1=NC(=O)C(CC(=O)Nc2ccc(Cl)cc2Cl)S1 (centres undefined) | > 100 | > 100 | > 100 | > 100 | > 100 | > 100 | > 100 | > 100 | > 100 | – | – | – | – | – | – | – | – | – | –
O=Cc1ccc2c(c1I)OCO2 | > 100 | > 100 | > 100 | > 100 | > 100 | > 100 | > 100 | > 100 | > 100 | – | – | – | – | – | – | – | – | – | –
CC(=O)/C(=C\c1ccccc1O)C(=O)Nc1ccccc1C | 29.4 | 89.1 | 29.3 | 37.2 | 39.9 | 72 | – | 31 | 70.1 | – | – | – | – | – | – | – | – | – | –
N#CNc1nc(N)c(-c2ccc(Cl)cc2)c(C(=O)Nc2nccs2)n1 | > 100 | > 100 | > 100 | > 100 | > 100 | > 100 | > 100 | > 100 | > 100 | – | – | – | – | – | – | – | – | – | –
c1cc(-c2cn3c(n2)SCC3)ccn1 | 44.5 | > 100 | > 100 | > 100 | > 100 | > 100 | > 100 | > 100 | > 100 | – | – | – | – | – | – | – | – | – | –
O=C(O)CCNS(=O)(=O)c1ccc([N+](=O)[O-])cc1 | > 100 | > 100 | > 100 | > 100 | > 100 | > 100 | > 100 | > 100 | > 100 | – | – | – | – | – | – | – | – | – | –
N#CC1(C#N)C(c2ccccc2)C=CC12OCCCO2 (centres undefined) | > 100 | > 100 | > 100 | > 100 | > 100 | > 100 | > 100 | > 100 | 98.1 | – | – | – | – | – | – | – | – | – | –
CCOc1ccc(NC(=O)CCc2nnc(SC)o2)cc1 | > 100 | > 100 | > 100 | > 100 | > 100 | > 100 | > 100 | > 100 | > 100 | – | – | – | – | – | – | – | – | – | –
ClC1=C(Cl)C(Cl)(Cl)c2c3c(c4c(c21)C(Cl)(Cl)C(Cl)=C4Cl)C(Cl)(Cl)C(Cl)=C3Cl | > 100 | > 100 | > 100 | > 100 | > 100 | > 100 | – | – | > 100 | – | – | – | – | – | – | – | – | – | –
CC1=C(CC2C(=O)N(c3ccccc3)S(=O)(=O)NC2C)C(=O)N(c2ccccc2)S(=O)(=O)N1C (centres undefined) | > 100 | > 100 | > 100 | > 100 | > 100 | > 100 | > 100 | > 100 | > 100 | – | – | – | – | – | – | – | – | – | –

SMILES | TGI [1] [µM] | TGI [2] [µM] | TGI [3] [µM] | TGI [4] [µM] | TGI [5] [µM] | TGI [6] [µM] | TGI [7] [µM] | TGI [8] [µM] | TGI [9] [µM] | GI50 [1] [µM] | GI50 [2] [µM] | GI50 [10] [µM] | TGI [10] [µM] | GI50 [4] [µM] | GI50 [5] [µM] | GI50 [9] [µM] | GI50 [6] [µM] | GI50 [8] [µM] | GI50 [3] [µM]
COc1ccc(OC(=O)CC2Cc3cc(OC)c(OC)c(OC)c3-c3ccc(SC)c(=O)cc32)cc1 (centres undefined) | > 36 | > 100 | 0.503 | > 100 | > 100 | – | > 100 | > 100 | > 100 | – | – | – | – | – | – | – | – | – | –
N#CCN1C(=O)c2cc([N+](=O)[O-])cc3cc([N+](=O)[O-])cc(c23)C1=O | 42.8 | 43.8 | 29.2 | > 69.2 | 48.2 | 27.1 | 84.8 | 32 | > 22.8 | – | – | – | – | – | – | – | – | – | –
CC(C)(C)c1cc2nc(c1)C(C(F)(F)F)(C(F)(F)F)OB(Br)OC2(C(F)(F)F)C(F)(F)F | 1.81 | 6.77 | 11.4 | 12.1 | 3.38 | – | 13 | 2.72 | 0.28 | – | – | – | – | – | – | – | – | – | –
CC1=C(C(=O)Nc2ccc(Cl)c(Cl)c2)C(c2ccc([N+](=O)[O-])cc2)C(C(=O)Nc2ccc(Cl)c(Cl)c2)=C(C)N1 | 11.1 | 15.1 | 4.98 | 7.55 | 3.82 | 4.56 | 20.5 | 10.6 | > 100 | – | – | – | – | – | – | – | – | – | –
COc1cc(C2(C)SCCCS2)cc(OC)c1OC | > 100 | > 100 | > 100 | > 100 | > 100 | > 100 | > 100 | > 100 | > 100 | – | – | – | – | – | – | – | – | – | –
Cc1ccc(C2C3Cc4ccccc4C3=NN2c2ccc(S(=O)(=O)/N=c3\scc(-c4ccccc4)n3-c3ccccc3)cc2)cc1 (centres undefined) | > 100 | 60.1 | – | – | > 100 | 43.7 | – | 55.4 | 31.1 | 32 | 19 | 24.7 | 81.9 | – | 30.6 | 12.8 | 16.6 | 18.4 | –
Cc1cc(=O)c2c(O)cc3c(c2o1)CC=C(COC1OC(COC2OC(CO)C(O)C(O)C2O)C(O)C(O)C1O)CO3 (centres undefined) | > 100 | > 100 | > 100 | – | > 100 | > 100 | > 100 | > 100 | > 100 | – | – | – | – | – | – | – | – | – | –
O=C(NCCNCCO)c1cccc2ccc(-c3ccccc3)nc12 | 19.6 | 12.8 | 17.1 | 14.6 | 17.8 | 25.1 | 22.3 | 12 | – | – | – | – | – | – | – | – | – | – | –
COc1ccc(-c2[nH]c3ccccc3c2CCNS(=O)(=O)c2ccc(C)cc2)cc1 | > 10 | > 10 | > 10 | > 10 | > 10 | > 10 | > 10 | > 10 | > 10 | – | – | – | – | – | – | – | – | – | –
C=C1[C@@H](O)O[C@H]2[C@H]1C[C@H](OC(C)=O)[C@]13C(=O)O[C@H]4C[C@](C)(O)[C@H]([C@H]41)C31C=C(C)[C@]2(O)O1 | 49.1 | > 100 | 76.2 | > 100 | – | 32.6 | – | 74.1 | > 100 | 22.4 | > 100 | – | – | 75.4 | – | 80.6 | 7.43 | 27.2 | 22.5
c1ccc2c(c1)CCc1c-2n[nH]c1-c1[nH]nc2c1CCc1ccccc1-2 | > 100 | > 100 | > 100 | > 100 | > 100 | > 100 | > 100 | > 100 | > 100 | – | – | – | – | – | – | – | – | – | –
O=C1OC(=O)c2c1c(-c1ccccc1)nc1ccccc21 | > 100 | > 100 | > 100 | > 100 | > 100 | > 100 | > 100 | > 100 | > 100 | – | – | – | – | – | – | – | – | – | –
CCCC(S(=O)(=O)c1ccccc1)S(=O)(=O)c1ccccc1 | > 100 | > 100 | > 100 | > 100 | > 100 | > 100 | > 100 | > 100 | > 100 | – | – | – | – | – | – | – | – | – | –
O=C1c2ccccc2N2OC3(N4CCCC4)CCCCC3C12c1ccccc1 (centres undefined) | 31.6 | 52.1 | > 100 | 52.6 | 34.6 | – | > 100 | > 100 | > 100 | – | – | – | – | – | – | – | – | – | –
COC(=O)C(C(=O)C(=O)Nc1ccc([N+](=O)[O-])cc1)c1nc2ccc([N+](=O)[O-])cc2[nH]c1=O (centres undefined) | > 100 | > 100 | > 100 | > 100 | > 100 | > 100 | > 100 | > 100 | > 100 | – | – | – | – | – | – | – | – | – | –
Cc1cccc(NC(=O)/C(=N\N)C(c2cnc3ccc([N+](=O)[O-])cc3n2)[N+](=O)[O-])c1C (centres undefined) | > 100 | > 100 | > 100 | > 100 | > 100 | > 100 | > 100 | > 100 | > 100 | – | – | – | – | – | – | – | – | – | –
